Experiments:
Format in all cases: in vivo
ECHOR [1] = experiment: Herbicidal activity, upland test, pre-emergence
Procedure: (§1) The sterilized sandy loam soil is filled in test pot having a surface area of 348 cm^2 for upland test conditions or 115 cm^2 for paddy test species were planted in furrows.
(§2) For the pre-emergent tests, were sprayed on the soil one day after planting test compound in a mixture of acetone and 7 ml of the water containing up to 0.1% Tween 20.
(§3) The concentration of the test compound in solution was varied to give a range of application rates, generally 4.0 kg/ha and submultiples thereof. The pots were placed in a greenhouse and watered regularly at the soil surface for 21 days and herbicidal effects were visually rated by a percent control.
(§4) The herbicidal activity data were taken visually by percent control, wherein 0 signifies no herbicidal effect and 100 signifies complete kill.

SOLNI [2] = experiment: Herbicidal activity, upland test, pre-emergence
Procedure: as §1, §2, §3, §4

DIGSA [3] = experiment: Herbicidal activity, upland test, pre-emergence
Procedure: as §1, §2, §3, §4

PANDI [4] = experiment: Herbicidal activity, upland test, pre-emergence
Procedure: as §1, §2, §3, §4

TRZAW [5] = experiment: Herbicidal activity, upland test, pre-emergence
Procedure: as §1, §2, §3, §4

AESIN [6] = experiment: Herbicidal activity, upland test, pre-emergence
Procedure: as §1, §2, §3, §4

SORBI [7] = experiment: Herbicidal activity, upland test, pre-emergence
Procedure: as §1, §2, §3, §4

ZEAMX [8] = experiment: Herbicidal activity, upland test, pre-emergence
Procedure: as §1, §2, §3, §4

ABUTH [9] = experiment: Herbicidal activity, upland test, pre-emergence
Procedure: as §1, §2, §3, §4

ORYSA [10] = experiment: Herbicidal activity, upland test, pre-emergence
Procedure: as §1, §2, §3, §4

BROJA [11] = experiment: Herbicidal activity, upland test, pre-emergence
Procedure: as §1, §2, §3, §4

GOSHI [12] = experiment: Herbicidal activity, upland test, pre-emergence
Procedure: as §1, §2, §3, §4

GLXMX [13] = experiment: Herbicidal activity, upland test, pre-emergence
Procedure: as §1, §2, §3, §4

ECHOR [14] = experiment: Herbicidal activity, upland test, post-emergence
Description: as §1
(§5) The pots for the post-emergent tests were placed in a greenhouse and watered for 9~14 days, then the foliage of test plants was sprayed with a solution of the test compound in a mixture of acetone and water containing a small amount of Tween 20.
(§6) After spraying the plants were kept for one day, then watered regularly for 14 to 21 days, and herbicidal activity data were recorded.
as §4

SOLNI [15] = experiment: Herbicidal activity, upland test, post-emergence
Description: as §1, §5, §6, §4

DIGSA [16] = experiment: Herbicidal activity, upland test, post-emergence
Description: as §1, §5, §6, §4

PANDI [17] = experiment: Herbicidal activity, upland test, post-emergence
Description: as §1, §5, §6, §4

TRZAW [18] = experiment: Herbicidal activity, upland test, post-emergence
Description: as §1, §5, §6, §4

AESIN [19] = experiment: Herbicidal activity, upland test, post-emergence
Description: as §1, §5, §6, §4

SORBI [20] = experiment: Herbicidal activity, upland test, post-emergence
Description: as §1, §5, §6, §4

ZEAMX [21] = experiment: Herbicidal activity, upland test, post-emergence
Description: as §1, §5, §6, §4

ABUTH [22] = experiment: Herbicidal activity, upland test, post-emergence
Description: as §1, §5, §6, §4

ORYSA [23] = experiment: Herbicidal activity, upland test, post-emergence
Description: as §1, §5, §6, §4

BROJA [24] = experiment: Herbicidal activity, upland test, post-emergence
Description: as §1, §5, §6, §4

GOSHI [25] = experiment: Herbicidal activity, upland test, post-emergence
Description: as §1, §5, §6, §4

GLXMX [26] = experiment: Herbicidal activity, upland test, post-emergence
Description: as §1, §5, §6, §4

CCON=C(CC)C1=C(O)CC(c2c(C)c(C)c3c(c2C)CC(C)(C)C3)CC1=O (stereo not drawn) [Compound 2]
90 % inhibition: Herbicidal activity, ECHOR (ECHOR [14]; 0.016 kg/ha)
50 % inhibition: Herbicidal activity, PANDI (PANDI [4]; 0.063 kg/ha) | Herbicidal activity, GOSHI (GOSHI [25]; 1.250 kg/ha)
30 % inhibition: Herbicidal activity, SORBI (SORBI [7]; 1.250 kg/ha) | Herbicidal activity, GLXMX (GLXMX [26]; 0.063 kg/ha)
100 % inhibition: Herbicidal activity, ECHOR (ECHOR [1]; 1.000 kg/ha) | Herbicidal activity, ECHOR (ECHOR [1]; 1.250 kg/ha) | Herbicidal activity, DIGSA (DIGSA [3]; 1.000 kg/ha) | Herbicidal activity, DIGSA (DIGSA [3]; 1.250 kg/ha) | Herbicidal activity, PANDI (PANDI [4]; 1.000 kg/ha) | Herbicidal activity, PANDI (PANDI [4]; 1.250 kg/ha) | Herbicidal activity, SORBI (SORBI [7]; 1.000 kg/ha) | Herbicidal activity, ZEAMX (ZEAMX [8]; 1.000 kg/ha) | Herbicidal activity, ORYSA (ORYSA [10]; 1.000 kg/ha) | Herbicidal activity, BROJA (BROJA [11]; 1.000 kg/ha) | Herbicidal activity, ECHOR (ECHOR [14]; 0.063 kg/ha) | Herbicidal activity, ECHOR (ECHOR [14]; 1.000 kg/ha) | Herbicidal activity, ECHOR (ECHOR [14]; 1.250 kg/ha) | Herbicidal activity, DIGSA (DIGSA [16]; 0.004 kg/ha) | Herbicidal activity, DIGSA (DIGSA [16]; 0.016 kg/ha) | Herbicidal activity, DIGSA (DIGSA [16]; 0.063 kg/ha) | Herbicidal activity, DIGSA (DIGSA [16]; 1.000 kg/ha) | Herbicidal activity, DIGSA (DIGSA [16]; 1.250 kg/ha) | Herbicidal activity, PANDI (PANDI [17]; 0.063 kg/ha) | Herbicidal activity, PANDI (PANDI [17]; 1.000 kg/ha) | Herbicidal activity, PANDI (PANDI [17]; 1.250 kg/ha) | Herbicidal activity, TRZAW (TRZAW [18]; 1.000 kg/ha) | Herbicidal activity, TRZAW (TRZAW [18]; 1.250 kg/ha) | Herbicidal activity, SORBI (SORBI [20]; 1.000 kg/ha) | Herbicidal activity, SORBI (SORBI [20]; 1.250 kg/ha) | Herbicidal activity, ZEAMX (ZEAMX [21]; 0.063 kg/ha) | Herbicidal activity, ZEAMX (ZEAMX [21]; 1.000 kg/ha) | Herbicidal activity, ZEAMX (ZEAMX [21]; 1.250 kg/ha) | Herbicidal activity, ORYSA (ORYSA [23]; 1.000 kg/ha) | Herbicidal activity, ORYSA (ORYSA [23]; 1.250 kg/ha) | Herbicidal activity, BROJA (BROJA [24]; 1.000 kg/ha) | Herbicidal activity, BROJA (BROJA [24]; 1.250 kg/ha)
40 % inhibition: Herbicidal activity, ECHOR (ECHOR [1]; 0.063 kg/ha) | Herbicidal activity, ZEAMX (ZEAMX [8]; 1.250 kg/ha) | Herbicidal activity, PANDI (PANDI [17]; 0.016 kg/ha) | Herbicidal activity, TRZAW (TRZAW [18]; 0.063 kg/ha) | Herbicidal activity, ZEAMX (ZEAMX [21]; 0.016 kg/ha) | Herbicidal activity, ORYSA (ORYSA [23]; 0.063 kg/ha) | Herbicidal activity, GOSHI (GOSHI [25]; 0.063 kg/ha) | Herbicidal activity, GLXMX (GLXMX [26]; 1.250 kg/ha)
20 % inhibition: Herbicidal activity, TRZAW (TRZAW [5]; 1.250 kg/ha) | Herbicidal activity, BROJA (BROJA [11]; 0.063 kg/ha) | Herbicidal activity, ORYSA (ORYSA [23]; 0.016 kg/ha)
0 % inhibition: Herbicidal activity, ECHOR (ECHOR [1]; 0.016 kg/ha) | Herbicidal activity, SOLNI (SOLNI [2]; 0.016 kg/ha) | Herbicidal activity, SOLNI (SOLNI [2]; 0.063 kg/ha) | Herbicidal activity, SOLNI (SOLNI [2]; 1.000 kg/ha) | Herbicidal activity, SOLNI (SOLNI [2]; 1.250 kg/ha) | Herbicidal activity, DIGSA (DIGSA [3]; 0.016 kg/ha) | Herbicidal activity, PANDI (PANDI [4]; 0.016 kg/ha) | Herbicidal activity, TRZAW (TRZAW [5]; 0.016 kg/ha) | Herbicidal activity, TRZAW (TRZAW [5]; 0.063 kg/ha) | Herbicidal activity, AESIN (AESIN [6]; 0.016 kg/ha) | Herbicidal activity, AESIN (AESIN [6]; 0.063 kg/ha) | Herbicidal activity, AESIN (AESIN [6]; 1.000 kg/ha) | Herbicidal activity, AESIN (AESIN [6]; 1.250 kg/ha) | Herbicidal activity, SORBI (SORBI [7]; 0.016 kg/ha) | Herbicidal activity, SORBI (SORBI [7]; 0.063 kg/ha) | Herbicidal activity, ZEAMX (ZEAMX [8]; 0.016 kg/ha) | Herbicidal activity, ZEAMX (ZEAMX [8]; 0.063 kg/ha) | Herbicidal activity, ABUTH (ABUTH [9]; 0.016 kg/ha) | Herbicidal activity, ABUTH (ABUTH [9]; 0.063 kg/ha) | Herbicidal activity, ABUTH (ABUTH [9]; 1.000 kg/ha) | Herbicidal activity, ABUTH (ABUTH [9]; 1.250 kg/ha) | Herbicidal activity, ORYSA (ORYSA [10]; 0.016 kg/ha) | Herbicidal activity, ORYSA (ORYSA [10]; 0.063 kg/ha) | Herbicidal activity, BROJA (BROJA [11]; 0.016 kg/ha) | Herbicidal activity, GOSHI (GOSHI [12]; 0.016 kg/ha) | Herbicidal activity, GOSHI (GOSHI [12]; 0.063 kg/ha) | Herbicidal activity, GOSHI (GOSHI [12]; 1.000 kg/ha) | Herbicidal activity, GOSHI (GOSHI [12]; 1.250 kg/ha) | Herbicidal activity, GLXMX (GLXMX [13]; 0.016 kg/ha) | Herbicidal activity, GLXMX (GLXMX [13]; 0.063 kg/ha) | Herbicidal activity, GLXMX (GLXMX [13]; 1.000 kg/ha) | Herbicidal activity, GLXMX (GLXMX [13]; 1.250 kg/ha) | Herbicidal activity, SOLNI (SOLNI [15]; 0.004 kg/ha) | Herbicidal activity, SOLNI (SOLNI [15]; 0.016 kg/ha) | Herbicidal activity, SOLNI (SOLNI [15]; 0.063 kg/ha) | Herbicidal activity, SOLNI (SOLNI [15]; 1.000 kg/ha) | Herbicidal activity, SOLNI (SOLNI [15]; 1.250 kg/ha) | Herbicidal activity, PANDI (PANDI [17]; 0.004 kg/ha) | Herbicidal activity, TRZAW (TRZAW [18]; 0.004 kg/ha) | Herbicidal activity, TRZAW (TRZAW [18]; 0.016 kg/ha) | Herbicidal activity, AESIN (AESIN [19]; 0.004 kg/ha) | Herbicidal activity, AESIN (AESIN [19]; 0.016 kg/ha) | Herbicidal activity, AESIN (AESIN [19]; 0.063 kg/ha) | Herbicidal activity, AESIN (AESIN [19]; 1.000 kg/ha) | Herbicidal activity, AESIN (AESIN [19]; 1.250 kg/ha) | Herbicidal activity, SORBI (SORBI [20]; 0.004 kg/ha) | Herbicidal activity, SORBI (SORBI [20]; 0.016 kg/ha) | Herbicidal activity, ZEAMX (ZEAMX [21]; 0.004 kg/ha) | Herbicidal activity, ABUTH (ABUTH [22]; 0.004 kg/ha) | Herbicidal activity, ABUTH (ABUTH [22]; 0.016 kg/ha) | Herbicidal activity, ABUTH (ABUTH [22]; 0.063 kg/ha) | Herbicidal activity, ABUTH (ABUTH [22]; 1.000 kg/ha) | Herbicidal activity, ABUTH (ABUTH [22]; 1.250 kg/ha) | Herbicidal activity, ORYSA (ORYSA [23]; 0.004 kg/ha) | Herbicidal activity, BROJA (BROJA [24]; 0.004 kg/ha) | Herbicidal activity, BROJA (BROJA [24]; 0.016 kg/ha) | Herbicidal activity, GOSHI (GOSHI [25]; 0.004 kg/ha) | Herbicidal activity, GOSHI (GOSHI [25]; 0.016 kg/ha) | Herbicidal activity, GLXMX (GLXMX [26]; 0.004 kg/ha) | Herbicidal activity, GLXMX (GLXMX [26]; 0.016 kg/ha)
60 % inhibition: Herbicidal activity, DIGSA (DIGSA [3]; 0.063 kg/ha) | Herbicidal activity, ORYSA (ORYSA [10]; 1.250 kg/ha) | Herbicidal activity, BROJA (BROJA [11]; 1.250 kg/ha) | Herbicidal activity, SORBI (SORBI [20]; 0.063 kg/ha) | Herbicidal activity, BROJA (BROJA [24]; 0.063 kg/ha) | Herbicidal activity, GLXMX (GLXMX [26]; 1.000 kg/ha)
80 % inhibition: Herbicidal activity, TRZAW (TRZAW [5]; 1.000 kg/ha) | Herbicidal activity, ECHOR (ECHOR [14]; 0.004 kg/ha)
70 % inhibition: Herbicidal activity, GOSHI (GOSHI [25]; 1.000 kg/ha)
